Square brackets hold non-standard residues; d marks the D form. Peptide text beside a SMILES is read from it. * marks the point of attachment. Dolaproine = CO[C@@H]([C@@H]1CCCN1)[C@@H](C)C(=O)O; Dil = CC[C@H](C)[C@H](NC)[C@@H](CC(=O)O)OC; X1 = C[C@@H](N*)[C@@H](O)c1ccccc1; NMeV = CN[C@H](C(=O)O)C(C)C
How the values were obtained:
[1] = tested on: human urinary bladder cancer cell line (T-24); assay: Cytotoxicity assay, cell titer glow luminescence, 72 h; type: cell-based; details: 72 h
Method: (§1) T-24 Cell line were cultured in McCoy's 5a Medium Modified supplemented with 10% FBS and the PA-1 Cell line was cultured in EMEM Media supplemented with 10% FBS. The assay was performed by plating 5,000 cells/well and incubated at 37° C. overnight. […] Each concentration was added in triplicate and media-only wells used as a control. After incubation for 72 h cell titer glow (Promega) reagent (50 μL) was added to each well and the plates shaken for 5 mins and the luminescence was recorded. Percent viability was determined by dividing luminescence of the treated well by the non-treated well and multiplying by 100. Data was analysed using non-linear regression with a logarithmic scale.
(§2) 5,000 cells/well were plated and incubated at 37° C. overnight. Conjugates/vehicle control dilutions were made in respective media and added to cells. Volume added: 50 uL to each well. Starting treatment concentration was 1 uM for Conjugate of formula 16 and 18, and control SEQ ID NO: 5 alone and 10% for vehicle control (1×PBS with 20% DMA) and then diluted 10-fold down for a total of 11 treatment dilutions. Each concentration was analysed in triplicates. Media-only wells was used as a control to calculate percent viability. Cell titer glow reagent (volume: 50 uL) was added to each well, the plate was shaken for 5 mins and the luminescence was recorded. Drug Treatment Time: 72 hours. Percent viability was calculated by dividing the luminescence signal obtained for each treated well by the untreated well (media-only control) and multiplying by 100.

[2] = tested on: ovarian cancer cell line (PA-1); assay: as above; type: cell-based; details: 72 h
Method: as §1, §2

[3] = tested on: PANC-1 cells; assay: MTT cytotoxicity assay, PANC-1 pancreatic; type: cell-based; details: Homo sapiens
Method: (§3) The Untreated cells were used as Control. […] Cells were incubated for 3 h at 37° C. The supernatant was aspirated.
(§4) The % Cytotoxicity was calculated using the formula: […]
(§5) Selectivity Index was calculated using the formula:
(§6) SI=IC50 in Normal cell/IC50 in cancer cell.

[4] = tested on: T-24 cells; assay: Cytotoxicity (cell titer glo, 72 h) human urinary bladder cancer cell line T-24; type: cell-based; details: T-24 cell line
Method: as §1
5,000 cells/well were plated and incubated at 37° C. overnight. Conjugates/vehicle control dilutions were made in respective media and added to cells. Volume added: 50 uL to each well. […] Each concentration was analysed in triplicates. […] Cell titer glow reagent (volume: 50 uL) was added to each well, the plate was shaken for 5 mins and the luminescence was recorded. […] Percent viability was calculated by dividing the luminescence signal obtained for each treated well by the untreated well (media-only control) and multiplying by 100.

[5] = tested on: MG-63 cells; assay: MTT cytotoxicity assay, MG-63 bone; type: cell-based; details: Homo sapiens, MG-63, 48 h
Method: as §3, §4, §5, §6

[6] = tested on: PBMC; assay: MTT cytotoxicity assay, PBMC normal; type: cell-based; details: 48 h
Method: as §3, §4, §5, §6

[7] = tested on: U251 MG cells; assay: MTT cytotoxicity assay, U251 MG brain; type: cell-based; details: Homo sapiens
Method: as §3, §4, §5, §6

[8] = tested on: KB cells; assay: MTT cytotoxicity assay, KB cervix; type: cell-based; details: Homo sapiens, 48 h
Method: as §3, §4, §5, §6

[9] = tested on: MG-63 Bone; assay: Cytotoxic effect by MTT assay, 48 h; details: for Percent cytotoxicity wrt control: 48 h
Method: (§7) Cells were treated with Test Items at various concentrations (0.0001 μM-10 μM) for 48 h. The cells corresponding to Positive Control group were treated with Doxorubicin at a concentration ranging from 0.1 μM-100 μM. The Untreated cells were used as Control. After 48 h of incubation, the effect of Test Items on cytotoxicity of cells was determined by MTT assay, the plates were taken out and 20 μl of 5 mg/m1 of MTT 3-(4,5-dimethythiazol-2-yl)-2,5-diphenyl tetrazolium bromide solution was added to all the wells. Cells were incubated for 3 h at 37° C. The supernatant was aspirated. 150 μl of DMSO was added to each well to dissolve formazan crystals. The absorbance of each well was then read at 540 nm using Synergy HT micro plate reader.
(§8) The % Cytotoxicity was calculated using the formula:
(§9) Where, X=Absorbance of cells treated with Test Item; R=Absorbance of Control cells (Untreated cells maintained in growth medium only).
as §5, §6
(§10) Activity scores of the Selective Index values were categorized as: • Not selective (SI value ≤1) • Moderately selective (1<SI value <5) • Selective (SI value ≥5)

[10] = tested on: KB Cervix; assay: Cytotoxic effect by MTT assay, 48 h; details: for Percent cytotoxicity wrt control: KB, 48 h
Method: as §7, §8, §9, §5, §6, §10

[11] = tested on: AGS Stomach; assay: Cytotoxic effect by MTT assay, 48 h; details: read-out: IC50 Values; AGS Stomach, after 48 h of treatment
Method: as §7, §8, §9, §5, §6, §10

[12] = tested on: PA-1 Ovary; assay: Cytotoxic effect by MTT assay, 48 h; details: for Percent cytotoxicity wrt control: 48 h
Method: as §7, §8, §9, §5, §6, §10

[13] = tested on: HT29 Colon; assay: Cytotoxic effect by MTT assay, 48 h; details: read-out: IC50 Values; HT29 Colon, after 48 h of treatment
Method: as §7, §8, §9, §5, §6, §10

[14] = tested on: MDA-MB-231 Breast; assay: Cytotoxic effect by MTT assay, 48 h; details: read-out: IC50 Values; MDA-MB-231 Breast, after 48 h of treatment
Method: as §7, §8, §9, §5, §6, §10

[15] = tested on: PANC-1 Pancreatic; assay: Cytotoxic effect by MTT assay, 48 h; details: for Percent cytotoxicity wrt control: 48 h
Method: as §7, §8, §9, §5, §6, §10

[16] = tested on: T24 Bladder; assay: Cytotoxic effect by MTT assay, 48 h; details: 48 h
Method: as §7, §8, §9, §5, §6, §10

## CC[C@H](C)[C@@H]([C@@H](CC(=O)N1CCC[C@H]1[C@H](OC)[C@@H](C)C(=O)N[C@H](C)[C@@H](O)c1ccccc1)OC)N(C)C(=O)[C@@H](NC(=O)[C@@H](NC)C(C)C)C(C)C [MMAE, monomethyl auristatin E] (H-[NMeV]V[Dil][Dolaproine]-X1)
[1]
  IC50: 0.24 nM
[2]
  IC50: 3.23 nM
[3]; PANC-1, 48 h
  IC50: 1.5 nM
[3]; PANC-1, 0.0001 μm, 48 h, read-out: Percent cytotoxicity wrt control
  cytotoxicity at 0.0001 µM: 38.1%
[3]; PANC-1, 0.001 μm, 48 h, read-out: Percent cytotoxicity wrt control
  cytotoxicity at 0.001 µM: 41%
[3]; PANC-1, 0.01 μm, 48 h, read-out: Percent cytotoxicity wrt control
  cytotoxicity at 0.01 µM: 64.1%
[3]; PANC-1, 0.1 μm, 48 h, read-out: Percent cytotoxicity wrt control
  cytotoxicity at 0.1 µM: 67.7%
[3]; PANC-1, 1 μm, 48 h, read-out: Percent cytotoxicity wrt control
  cytotoxicity at 1 µM: 77.1%
[3]; PANC-1, 10 μm, 48 h, read-out: Percent cytotoxicity wrt control
  cytotoxicity at 10 µM: 69.7%
[4]
  IC50: 0.24 nM
[5]
  IC50: 0.1 nM
[6]; PBMC (normal)
  IC50: > 10000 nM
[6]; PBMC, 0.0001 μm, read-out: Percent cytotoxicity wrt control
  cytotoxicity at 0.0001 µM: -2.7%
[7]; U-251, 0.0001 μm, 48 h, read-out: Percent cytotoxicity wrt control
  cytotoxicity at 0.0001 µM: 77.8%
[7]; U-251, 0.001 μm, 48 h, read-out: Percent cytotoxicity wrt control
  cytotoxicity at 0.001 µM: 52.5%
[7]; U-251, 0.01 μm, 48 h, read-out: Percent cytotoxicity wrt control
  cytotoxicity at 0.01 µM: 58.6%
[7]; U-251, 0.1 μm, 48 h, read-out: Percent cytotoxicity wrt control
  cytotoxicity at 0.1 µM: 63.1%
[7]; U-251, 1 μm, 48 h, read-out: Percent cytotoxicity wrt control
  cytotoxicity at 1 µM: 64.7%
[7]; U-251, 10 μm, 48 h, read-out: Percent cytotoxicity wrt control
  cytotoxicity at 10 µM: 71%
[7]; U-251, 48 h
  IC50: 0.2 nM
[8]; 0.0001 μm, read-out: Percent cytotoxicity wrt control
  cytotoxicity at 0.0001 µM: 90.5%
[8]; 0.001 μm, read-out: Percent cytotoxicity wrt control
  cytotoxicity at 0.001 µM: 95.8%
[8]; 0.01 μm, read-out: Percent cytotoxicity wrt control
  cytotoxicity at 0.01 µM: 96.1%
[8]; 0.1 μm, read-out: Percent cytotoxicity wrt control
  cytotoxicity at 0.1 µM: 96.3%
[8]; 1 μm, read-out: Percent cytotoxicity wrt control
  cytotoxicity at 1 µM: 96.2%
[8]; 10 μm, read-out: Percent cytotoxicity wrt control
  cytotoxicity at 10 µM: 96.3%
[8]
  IC50: 0.1 nM
[9]; MG-63, 0.0001 μM
  Percent cytotoxicity wrt control: 81.7%
[9]; MG-63, 0.001 μM
  Percent cytotoxicity wrt control: 85.5%
[9]; MG-63, 0.01 μM
  Percent cytotoxicity wrt control: 86.2%
[9]; MG-63, 0.1 μM
  Percent cytotoxicity wrt control: 87.4%
[9]; MG-63, 1 μM
  Percent cytotoxicity wrt control: 85.3%
[9]; MG-63, 10 μM
  Percent cytotoxicity wrt control: 82.3%
[9]; read-out: IC50 Values, MG-63 Bone, after 48 h of treatment
  IC50: ≤ 0.1 nM
[10]; 0.0001 μM
  Percent cytotoxicity wrt control: 90.5%
[10]; 0.01 μM
  Percent cytotoxicity wrt control: 96.1%
[10]; 0.1 μM
  Percent cytotoxicity wrt control: 96.3%
[10]; 1 μM
  Percent cytotoxicity wrt control: 96.2%
[10]; 10 μM
  Percent cytotoxicity wrt control: 96.3%
[10]; read-out: IC50 Values, KB Cervix, after 48 h of treatment
  IC50: ≤ 0.1 nM
[11]
  IC50: 1540 nM
[12]; PA-1, 0.0001 μM
  Percent cytotoxicity wrt control: 13.4%
[12]; PA-1, 0.001 μM
  Percent cytotoxicity wrt control: 57.5%
[12]; PA-1, 0.01 μM
  Percent cytotoxicity wrt control: 50%
[12]; PA-1, 0.1 μM
  Percent cytotoxicity wrt control: 57.5%
[12]; PA-1, 1 μM
  Percent cytotoxicity wrt control: 61.7%
[12]; PA-1, 10 μM
  Percent cytotoxicity wrt control: 58.3%
[12]; read-out: IC50 Values, PA-1 Ovary, after 48 h of treatment
  IC50: 30.1 nM
[13]
  IC50: 50 nM
[14]
  IC50: > 10000 nM
[15]; PANC-1, 0.0001 μM
  Percent cytotoxicity wrt control: 38.1%
[15]; PANC-1, 0.001 μM
  Percent cytotoxicity wrt control: 41%
[15]; PANC-1, 0.01 μM
  Percent cytotoxicity wrt control: 64.1%
[15]; PANC-1, 0.1 μM
  Percent cytotoxicity wrt control: 67.7%
[15]; PANC-1, 10 μM
  Percent cytotoxicity wrt control: 69.7%
[15]; read-out: IC50 Values, PANC-1 Pancreatic, after 48 h of treatment
  IC50: 1.5 nM
[16]; T24, 0.0001 μM
  Percent cytotoxicity wrt control: 51.8%
[16]; T24, 0.001 μM
  Percent cytotoxicity wrt control: 51.1%
[16]; T24, 0.1 μM
  Percent cytotoxicity wrt control: 44.4%
[16]; T24, 1 μM
  Percent cytotoxicity wrt control: 44.4%

— patent US20250302974A1, “LECTIN-DRUG CONJUGATES” (UNICHEM LABORATORIES LIMITED, priority 2021, published 2025)
